Experimental data: publication PMC6204601, “In Vivo Selectivity and Localization of Reactive Oxygen Species (ROS) Induction by Osmium Anticancer Complexes That Circumvent Platinum Resistance” (Journal of Medicinal Chemistry, 2018)
Read-outs that look alike come from different tables or passages of the source.

Assays:
[1] = test system: HOF human ovarian fibroblasts; assay: Sulforhodamine B antiproliferative assay, HOF; assay type: cell-based; conditions: 24 h drug exposure + 72 h recovery, SRB; non-cancer fibroblasts
Method: (§1) In vitro biological studies
(§2) Sulforhodamine B cell viability colorimetric assay.
(§3) by ICP-OES analysis for metal content).
(§4) 72 h recovery time (310 K).
(§5) using slowly-running tap water and air dried.
(§6) Data were processed using Microsoft Excel

[2] = test system: A2780Cis cisplatin-resistant ovarian carcinoma cells; assay: Sulforhodamine B antiproliferative assay, A2780Cis; assay type: cell-based, human; conditions: 24 h drug exposure + 72 h recovery, SRB
[3] = test system: MRC5 human lung fibroblasts; assay: Sulforhodamine B antiproliferative assay, MRC5; assay type: cell-based; conditions: 24 h drug exposure + 72 h recovery, SRB; non-cancer fibroblasts
Method: as §1, §2, §3, §4, §5, §6
IC50 values (concentrations at which […]
After this time, cells were […]

[4] = test system: HCT116Ox oxaliplatin-resistant colorectal carcinoma cells; assay: Sulforhodamine B antiproliferative assay, HCT116Ox; assay type: cell-based, human; conditions: 24 h drug exposure + 72 h recovery, SRB, read-out: Antiproliferative activity (IC50) HCT116Ox Colon
[5] = test system: Tubingen wild-type zebrafish embryos; assay: Zebrafish embryo toxicity (FET) test, TU-WT; assay type: in vivo; conditions: 96 h exposure, read-out: LC50 (Danio rerio) TU-WT
[6] = test system: A2780 ovarian carcinoma cells; assay: Sulforhodamine B antiproliferative assay, A2780; assay type: cell-based, human; conditions: SRB
[7] = test system: HCT116p53-/- P53-knockout colorectal carcinoma cells; assay: Sulforhodamine B antiproliferative assay, HCT116p53-/-; assay type: cell-based, human; conditions: 24 h drug exposure + 72 h recovery, SRB, read-out: Antiproliferative activity (IC50) HCT116p53-/- Colon
[8] = test system: HCT116 colorectal carcinoma cells; assay: Sulforhodamine B antiproliferative assay, HCT116; assay type: cell-based, human; conditions: 24 h drug exposure + 72 h recovery, SRB; read-out: Antiproliferative activity (IC50) HCT116 Colon
[9] = test system: A549 lung carcinoma cells; assay: Sulforhodamine B antiproliferative assay, A549; assay type: cell-based, human; conditions: 24 h drug exposure + 72 h recovery, SRB
[10] = test system: HCT116p21-/- P21-knockout colorectal carcinoma cells; assay: Sulforhodamine B antiproliferative assay, HCT116p21-/-; assay type: cell-based, human; conditions: 24 h drug exposure + 72 h recovery, SRB, read-out: Antiproliferative activity (IC50) HCT116p21-/- Colon
[11] = test system: Singapore wild-type zebrafish embryos; assay type: in vivo, Danio rerio; conditions: zebrafish embryos, 96 h exposure; read-out: LC50 (Danio rerio) SG-WT
Method: In vivo biological studies […]
wild-type zebrafish (SGWT) embryos (< 5 dpf). All animals were maintained in accordance with ASPA […]
maintained. Light cycle: 14 hours day, 10 hours night.
1 L breeding tank. Pairs were set up the previous evening. Males and females were separated by a divider. The divider was removed around 9am (dawn). Embryos were collected and placed into petri dishes with fresh egg water. […]

[12] = test system: AB wild-type zebrafish embryos; assay type: in vivo; conditions: 96 h exposure, read-out: LC50 (Danio rerio) AB-WT
[13] = test system: HOF human ovarian fibroblasts; assay: ROS/superoxide detection by flow cytometry, HOF; conditions: 24 h, 1.0 × IC50 (pyocyanin positive control 0.1 mM); for % Population Q2 FL1-H+ / FL2-H+: ROS and superoxide; for % Population Q1 FL1-H- / FL2-H+: superoxide only; for % Population Q3 FL1-H+ / FL2-H-: total ROS only
Method: (§7) Reactive oxygen species (ROS) determination using flow cytometry. The generation of ROS and
(§8) superoxide in A2780 ovarian cancer cells was evaluated using the ROS/Superoxide detection kit (Enzo
(§9) Life Sciences) following the manufacturer’s protocol.
(§10) cells per well, and incubated for 24 h (310 K). After this time, cells were exposed to equipotent
The pellets were re-suspended in 500
(§11) μL PBS and stained with green fluorescent reagent for total ROS reading in the FL1-green channel (2
(§12) μL) and orange fluorescent reagent for superoxide reading in the FL2-red channel (2 μL). Positive
(§13) control samples were treated with pyocyanin (5 μL, 30 min). Single stained positive control samples
(§14) were used for compensation purposes. Data were obtained using a Becton Dickson FACScan Flow
(§15) Cytometer and processed using FlowJo V10 for Windows.

A2780 cancer cells = assay: ROS/superoxide detection by flow cytometry, A2780; conditions: A2780, 24 h, 1.0 × IC50 (pyocyanin positive control 0.1 mM); for % Population Q2 FL1-H+ / FL2-H+: ROS and superoxide; for % Population Q1 FL1-H- / FL2-H+: superoxide only; for % Population Q3 FL1-H+ / FL2-H-: total ROS only
Method: as §7, §8, §9, §10
The pellets were re-suspended in 500
as §11, §12, §13, §14, §15

[14] = 24 h drug exposure + 72 h recovery in drug-free medium, read-out: Antiproliferative activity (IC50) A2780 Ovarian

Row | Molecule | IC50 [1] [µM] | IC50 [2] [µM] | IC50 [3] [µM] | IC50 [4] [µM] | LC50 [5] [µM] | IC50 [6, 14] [nM] | IC50 [7] [µM] | IC50 [8] [µM] | IC50 [9] [µM] | IC50 [10] [µM] | LC50 [11] [µM] | LC50 [12] [µM] | other results
1 | CS(=O)(=O)[N]1[Os][NH][C@H](c2ccccc2)[C@H]1c1ccccc1.Cc1ccc(C(C)C)cc1 [Complex 2, [Os(p-cymene)(Ms-DPEN)]] | > 50 | 39.4 ± 0.6 | 26 ± 0.4 | 56 ± 5 | 2.8 ± 0.5 | 30000 ± 2000 | 56 ± 6 | 67 ± 1 | 31 ± 1 | 71 ± 5 | 3.5 ± 0.4 | 2.8 ± 0.6 | –
2 | Cc1ccc(C(C)C)cc1.[NH-]C(c1ccccc1)C([N-]S(=O)(=O)c1ccc([N+](=O)[O-])cc1)c1ccccc1.[Os+2] (centres unmarked) [Complex 3, [Os(p-cymene)(Ns-DPEN)]] | > 50 | 21.1 ± 0.3 | 21.9 ± 0.7 | 64 ± 5 | – | 19900 ± 500 | 53 ± 3 | 67 ± 1 | 27 ± 2 | 63 ± 4 | 1.9 ± 0.3 | 3.9 ± 0.3 | –
3 | Cc1ccc(C(C)C)cc1.O=S(=O)(c1ccc(F)cc1)[N]1[Os][NH][C@H](c2ccccc2)[C@H]1c1ccccc1 [Complex 4, [Os(p-cymene)(Fb-DPEN)]] | 48 ± 3 | 15 ± 2 | 35 ± 1 | 54 ± 2 | 1.5 ± 0.3 | 17000 ± 1000 | 39.4 ± 0.6 | 49 ± 3 | 31.5 ± 0.4 | 70 ± 3 | 0.7 ± 0.2 | 3 ± 0.5 | –
4 | Cc1ccc(C(C)C)cc1.O=S(=O)(c1ccccc1)[N]1[Os][NH][C@H](c2ccccc2)[C@H]1c1ccccc1 [Complex 5, [Os(p-cymene)(Bs-DPEN)]] | 19.9 ± 0.9 | 21 ± 1 | 31.3 ± 0.2 | 52 ± 0.8 | 1.5 ± 0.3 | 13500 ± 900 | 48 ± 2 | 49 ± 6 | 26.3 ± 0.5 | 54.3 ± 0.9 | 0.8 ± 0.2 | – | –
5 | Cc1ccc(S(=O)(=O)[N]2[Os][NH][C@H](c3ccccc3)[C@H]2c2ccccc2)cc1.c1ccc(-c2ccccc2)cc1 [Complex 7, [Os(biphenyl)(Ts-DPEN)]] | 44 ± 1 | 25.9 ± 0.7 | 15.1 ± 0.5 | 46.2 ± 0.7 | 3.3 ± 0.4 | 6500 ± 300 | 40 ± 6 | 26.1 ± 0.3 | 22.4 ± 0.7 | 90 ± 1 | – | 3.5 ± 0.8 | –
6 | Cc1ccc(S(=O)(=O)[N]2[Os][NH][C@H](c3ccccc3)[C@H]2c2ccccc2)cc1.c1ccc(-c2cccc(-c3ccccc3)c2)cc1 [Complex 8, [Os(terphenyl)(Ts-DPEN)]] | 24.3 ± 0.4 | 10.4 ± 0.5 | 9.7 ± 0.2 | – | – | 4400 ± 300 | – | 41.2 ± 0.7 | 25.5 ± 0.3 | – | 0.7 ± 0.2 | – | –
7 | CN(C)c1ccc(N=Nc2ccccn2)cc1.Cc1ccc(C(C)C)cc1.F[P-](F)(F)(F)(F)F.[Cl][Os+] [Complex 9, [Os(Azpy-NMe2)(p-cymene)Cl]PF6] | 11.1 ± 0.9 | 0.37 ± 0.03 | 7.1 ± 0.2 | 5.8 ± 0.7 | 12 ± 1 | 1800 ± 100 | 3.2 ± 0.3 | 21.9 ± 0.7 | 36.6 ± 0.8 | 4 ± 0.3 | 13.61 ± 0.09 | 14 ± 2 | % Population Q4 FL1-H- / FL2-H- [13]: 15 ± 1%; % Population Q2 FL1-H+ / FL2-H+ [13]: 13.8 ± 0.1%; % Population Q1 FL1-H- / FL2-H+ [13]: 11.7 ± 0.8%; % Population Q3 FL1-H+ / FL2-H- [13]: 60 ± 2%; % Population Q4 FL1-H- / FL2-H- (A2780 cancer cells): 0 ± 0%; % Population Q2 FL1-H+ / FL2-H+ (A2780 cancer cells): 97.0 ± 0.2%; % Population Q1 FL1-H- / FL2-H+ (A2780 cancer cells): 0 ± 0%; % Population Q3 FL1-H+ / FL2-H- (A2780 cancer cells): 3.0 ± 0.2%
8 | CN(C)c1ccc(N=Nc2ccccn2)cc1.F[P-](F)(F)(F)(F)F.[Cl][Os+].c1ccc(-c2ccccc2)cc1 [Complex 11, [Os(Azpy-NMe2)(biphenyl)Cl]PF6] | 27 ± 2 | 16.8 ± 0.2 | 16.9 ± 0.1 | 10 ± 0.9 | 15.8 ± 0.9 | 3900 ± 300 | 28 ± 1 | 7.2 ± 0.05 | 20 ± 1 | 67 ± 3 | 16.8 ± 0.8 | 12 ± 1 | –
9 | F[P-](F)(F)(F)(F)F.Oc1ccc(N=Nc2ccccn2)cc1.[I][Os+].c1ccc(-c2ccccc2)cc1 [Complex 13, [Os(Azpy-OH)(biphenyl)I]PF6] | 0.32 ± 0.09 | 0.13 ± 0.02 | 0.22 ± 0.01 | 0.14 ± 0.01 | 7.2 ± 0.2 | – | 0.13 ± 0.01 | 0.15 ± 0.01 | 0.52 ± 0.06 | 0.3 ± 0.01 | 8 ± 0.1 | 7.4 ± 0.2 | IC50 ([6]; 24 h drug exposure + 72 h recovery, value in nM, read-out: IC50 in A2780): 140 nM
10 | Cn1c2cccc(=O)c-2nc2ccccc21 [Pyocyanin, pyocyanin, reference compound] | – | – | – | – | – | – | – | – | – | – | – | – | % Population Q4 FL1-H- / FL2-H- [13]: 1.2 ± 0.5%; % Population Q2 FL1-H+ / FL2-H+ [13]: 90 ± 2%; % Population Q1 FL1-H- / FL2-H+ [13]: 8 ± 2%; % Population Q3 FL1-H+ / FL2-H- [13]: 1.2 ± 0.2%; % Population Q4 FL1-H- / FL2-H- (A2780 cancer cells): 0.02 ± 0.01%; % Population Q2 FL1-H+ / FL2-H+ (A2780 cancer cells): 99 ± 2%; % Population Q1 FL1-H- / FL2-H+ (A2780 cancer cells): 0.03 ± 0.02%; % Population Q3 FL1-H+ / FL2-H- (A2780 cancer cells): 0.00 ± 0.01%
11 | N.N.O=C([O-])C1(C(=O)[O-])CCC1.[Pt+2] [carboplatin, reference compound] | – | – | – | – | 7.1 ± 0.7 | – | – | – | – | – | 5.7 ± 0.9 | 10 ± 1 | –
12 | N.N.[Cl][Pt][Cl] [cisplatin, reference compound] | – | 11.5 ± 0.2 | 13.5 ± 0.9 | 23.4 ± 0.4 | – | 1200 | 36.7 | 5.1 ± 0.3 | 3.2 ± 0.1 | 9.2 ± 0.5 | – | – | –
13 | [Os(p-cymene)(SRB-DPEN)] [Complex 6] | – | 27.2 ± 0.4 | – | 35 ± 1 | – | 18000 ± 3000 | 34 ± 3 | 40.6 ± 0.1 | 16.8 ± 0.2 | 43 ± 3 | – | – | –
